# What was measured:
# human EAAT3 = target: T1, human EAAT3 (Homo sapiens, UniProt P43005); experiment: FLIPR Membrane Potential (FMP) assay; assay type: cell-based; conditions: HEK-293 cells stably expressing human EAAT3; L-glutamate as agonist at 80% of maximum response; antagonist applied 15 min before; Kb by Cheng-Prusoff from IC50
# T1 construct: expressed in transfected cells
# T1 sequence (P43005 1-524): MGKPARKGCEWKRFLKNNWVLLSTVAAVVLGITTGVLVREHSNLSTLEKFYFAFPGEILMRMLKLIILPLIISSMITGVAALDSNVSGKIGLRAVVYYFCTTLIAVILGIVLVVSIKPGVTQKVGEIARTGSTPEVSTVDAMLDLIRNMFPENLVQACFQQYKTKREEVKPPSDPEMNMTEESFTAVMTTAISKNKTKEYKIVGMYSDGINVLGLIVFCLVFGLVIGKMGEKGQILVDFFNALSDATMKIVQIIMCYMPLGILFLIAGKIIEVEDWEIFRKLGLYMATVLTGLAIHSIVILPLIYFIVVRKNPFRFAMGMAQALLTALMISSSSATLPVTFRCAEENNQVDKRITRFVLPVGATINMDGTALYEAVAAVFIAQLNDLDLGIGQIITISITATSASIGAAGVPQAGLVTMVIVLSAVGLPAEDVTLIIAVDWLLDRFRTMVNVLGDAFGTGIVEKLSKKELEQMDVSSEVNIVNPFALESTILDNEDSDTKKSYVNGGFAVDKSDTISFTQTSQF
# Experimental: The FLIPR Membrane Potential (FMP) Assay
# HEK-293 cells stably expressing human EAAT3 were seeded at 55 000 cells/well in growth medium (DMEM glutamate free (Invitrogen 11960-044), 1% Pen Strep (10 ml/l GIBCO BRL N^o 15140-023), 10% FCS non dialysed heat inactivated, 5 mg/l puromycin) in poly-D-lysine treated 96-well black microtiter plates with clear-bottom. After 24 h, the growth medium was removed and 100 μl/well of Krebs buffer (140 mM NaCl, 4.7 mM KCl, 2.5 mM CaCl2, 1.2 mM MgCl2, 11 mM HEPES, 10 mM D-glucose, pH=7.4) added. The cells were then loaded by adding 100 μl/well FMP assay dye (FLIPR Membrane Potential assay reagent, Molecular Devices). The 96-well plates were then incubated at 37° C. for 1 h. The depolarization of the cells will cause more dye to enter in the cells, where it will bind to intracellular proteins and lipids and cause an increase in the fluorescence signal. Antagonist potency at human EAAT3 was determined by using L-glutamate as agonist at a concentration which gives 80% of the maximum response. The antagonists were applied 15 min before the application of the agonist L-glutamate. The assays were performed at room temperature and measurements done by using a Fluorometric Imaging Plate Reader (FLIPR, Molecular Devices) and filter #2. Responses were measured as peak increase in fluorescence minus basal (i.e. fluorescence without addition of L-glutamate). Kb was determined using the Cheng-Prusoff equation Kb=IC50/[1+(A/EC50)], where IC50 is the concentration of the antagonist producing 50% inhibition, A is the concentration of the agonist against which the IC50 is being determined ([…]) and EC50 is the concentration of the agonist producing […].
SMILES,Kb (human EAAT3),melting point
"CC(C)n1nccc1-c1cc(C(=O)NC(C)(C)C(F)(F)F)cc(-c2ccc(Cl)cc2)c1 [Example 40, 3-(4-Chlorophenyl)-5-(2-propan-2-yl-pyrazol-3-yl)-N-(1,1,1-trifluoro-2-methyl-propan-2-yl)-benzamide]",620 nM,77.5 °C
"CC(C)(C)NC(=O)c1cc(-c2ccc(F)cc2)cc(-c2ccnn2C(C)(C)C)c1 [Example 2, N-tert-Butyl-3-(2-tert-butyl-pyrazol-3-yl)-5-(4-fluorophenyl)-benzamide]",190 nM,210 °C
"CC(C)n1nccc1-c1cc(C(=O)NC(C)(C)C)cc(-c2ccc(F)c(Cl)c2)c1 [Example 12, N-tert-Butyl-3-(3-chloro-4-fluorophenyl)-5-(2-propan-2-yl-pyrazol-3-yl)-benzamide]",610 nM,81 °C
"CC(C)(C)NC(=O)c1cc(-c2ccc(Cl)cc2)cc(-c2ccnn2CC2CC2)c1 [Example 25, N-tert-Butyl-3-(4-chlorophenyl)-5-[2-(cyclopropyl-methyl)-pyrazol-3-yl]-benzamide]",250 nM,159 °C
"CC(C)(C)NC(=O)c1cc(-c2ccc(C#N)cc2)cc(-c2ccnn2C(C)(C)C)c1 [Example 38, N-tert-Butyl-3-(2-tert-butyl-pyrazol-3-yl)-5-(4-cyano-phenyl)-benzamide]",240 nM,201.5 °C
"CCC(C)(C)NC(=O)c1cc(-c2ccc(Cl)cc2)cc(-c2ccnn2C(C)(C)C)c1 [Example 18, 3-(2-tert-Butyl-pyrazol-3-yl)-5-(4-chlorophenyl)-N-(2-methyl-butan-2-yl)-benzamide]",3420 nM,183.5 °C
"Cc1ccc(-c2cc(C(=O)NC(C)(C)C)cc(-c3ccnn3C(C)(C)C)c2)cc1 [Example 30, N-tert-Butyl-3-(2-tert-butyl-pyrazol-3-yl)-5-(4-methyl-phenyl)-benzamide]",370 nM,193 °C
"CC(C)n1nccc1-c1cc(C(=O)NC(C)(C)C)cc(-c2ccc(C#N)cc2)c1 [Example 17, N-tert-Butyl-3-(4-cyano-phenyl)-5-(2-propan-2-yl-pyrazol-3-yl)-benzamide]",330 nM,94 °C
"CCC(C)(C)NC(=O)c1cc(-c2ccc(Cl)cc2)cc(-c2ccnn2C(C)C)c1 [Example 19, 3-(4-Chlorophenyl)-N-(2-methyl-butan-2-yl)-5-(2-propan-2-yl-pyrazol-3-yl)-benzamide]",890 nM,72.5 °C
"CC(C)(C#N)NC(=O)c1cc(-c2ccc(Cl)cc2)cc(-c2ccnn2C(C)(C)C)c1 [Example 22, 3-(2-tert-Butylpyrazol-3-yl)-5-(4-chlorophenyl)-N-(2-cyanopropan-2-yl)-benzamide]",370 nM,119 °C
"Cc1ccc(-c2cc(C(=O)NC(C)(C)C)cc(-c3ccnn3C(C)C)c2)cc1F [Example 20, N-tert-Butyl-3-(3-fluoro-4-methyl-phenyl)-5-(2-propan-2-yl-pyrazol-3-yl)-benzamide]",360 nM,81 °C
"CC(C)n1nccc1-c1cc(C(=O)NC(C)(C)C)cc(-c2ccc(Cl)cc2)c1 [Example 5, N-tert-Butyl-3-(4-chlorophenyl)-5-(2-propan-2-yl-pyrazol-3-yl)-benzamide]",170 nM,84 °C
"COc1ccc(-c2cc(C(=O)NC(C)(C)C)cc(-c3ccnn3C(C)C)c2)cc1 [Example 11, N-tert-Butyl-3-(4-methoxyphenyl)-5-(2-propan-2-yl-pyrazol-3-yl)-benzamide]",290 nM,79 °C
"CC(C)(C)NC(=O)c1cc(-c2ccc(C(F)(F)F)cc2)cc(-c2ccnn2C(C)(C)C)c1 [Example 3, N-tert-Butyl-3-(2-tert-butyl-pyrazol-3-yl)-5-[4-(trifluoromethyl)-phenyl]-benzamide]",280 nM,205 °C
"COc1ccc(-c2cc(C(=O)NC(C)(C)C)cc(-c3ccnn3C(C)(C)C)c2)cc1 [Example 31, N-tert-Butyl-3-(2-tert-butyl-pyrazol-3-yl)-5-(4-methoxy-phenyl)-benzamide]",250 nM,173 °C
"CC(C)c1ccc(-c2cc(C(=O)NC(C)(C)C)cc(-c3ccnn3C(C)(C)C)c2)cc1 [Example 34, N-tert-Butyl-3-(2-tert-butyl-pyrazol-3-yl)-5-(4-propan-2-yl-phenyl)-benzamide]",600 nM,209.5 °C
"CC(C)(C)NC(=O)c1cc(-c2ccc(C3CC3)cc2)cc(-c2ccnn2C(C)(C)C)c1 [Example 37, N-tert-Butyl-3-(2-tert-butyl-pyrazol-3-yl)-5-(4-cyclopropyl-phenyl)-benzamide]",1130 nM,198.5 °C
"CC(C)(C)NC(=O)c1cc(-c2ccc(F)c(F)c2)cc(-c2ccnn2C(C)(C)C)c1 [Example 36, N-tert-Butyl-3-(2-tert-butyl-pyrazol-3-yl)-5-(3,4-difluorophenyl)-benzamide]",440 nM,197.5 °C
"Cc1cc(-c2cc(C(=O)NC(C)(C)C)cc(-c3ccnn3C(C)(C)C)c2)ccc1F [Example 27, N-tert-Butyl-3-(2-tert-butyl-pyrazol-3-yl)-5-(4-fluoro-3-methyl-phenyl)-benzamide]",930 nM,186 °C
"Cc1ccc(-c2cc(C(=O)NC(C)(C)C)cc(-c3ccnn3C(C)C)c2)cc1 [Example 9, N-tert-Butyl-3-(4-methylphenyl)-5-(2-propan-2-yl-pyrazol-3-yl)-benzamide]",260 nM,163 °C
"CC(C)n1nccc1-c1cc(C(=O)NC(C)(C)C#N)cc(-c2ccc(Cl)cc2)c1 [Example 21, 3-(4-Chlorophenyl)-N-(2-cyano-propan-2-yl)-5-(2-propan-2-yl-pyrazol-3-yl)-benzamide]",320 nM,96 °C
"CC(C)n1nccc1-c1cc(C(=O)NC(C)(C)C)cc(-c2ccc(C3CC3)cc2)c1 [Example 14, N-tert-Butyl-3-(4-cyclopropyl-phenyl)-5-(2-propan-2-yl-pyrazol-3-yl)-benzamide]",880 nM,83 °C
"CC(C)n1nccc1-c1cc(C(=O)NC(C)(C)C2CC2)cc(-c2ccc(Cl)cc2)c1 [Example 26, 3-(4-Chlorophenyl)-N-(2-cyclopropyl-propan-2-yl)-5-(2-propan-2-yl-pyrazol-3-yl)-benzamide]",1520 nM,169 °C
"CCn1nccc1-c1cc(C(=O)NC(C)(C)C)cc(-c2ccc(F)cc2)c1 [Example 47, N-tert-Butyl-3-(2-ethyl-pyrazol-3-yl)-5-(4-fluorophenyl)-benzamide]",110 nM,162 °C
"CC(C)c1ccc(-c2cc(C(=O)NC(C)(C)C)cc(-c3ccnn3C(C)C)c2)cc1 [Example 10, N-tert-Butyl-3-(4-propan-2-yl-phenyl)-5-(2-propan-2-yl-pyrazol-3-yl)-benzamide]",550 nM,86 °C
"CC(C)(C)NC(=O)c1cc(-c2ccc(F)c(Cl)c2)cc(-c2ccnn2C(C)(C)C)c1 [Example 32, N-tert-Butyl-3-(2-tert-butyl-pyrazol-3-yl)-5-(3-chloro-4-fluoro-phenyl)-benzamide]",410 nM,175 °C
"Cc1cc(-c2cc(C(=O)NC(C)(C)C)cc(-c3ccnn3C(C)C)c2)ccc1F [Example 15, N-tert-Butyl-3-(4-fluoro-3-methyl-phenyl)-5-(2-propan-2-yl-pyrazol-3-yl)-benzamide]",1280 nM,155 °C
"CC(C)n1nccc1-c1cc(C(=O)NC(C)(C)C)cc(-c2ccc(C(F)(F)F)cc2)c1 [Example 7, N-tert-Butyl-3-(2-propan-2-yl-pyrazol-3-yl)-5-[4-(trifluoromethyl)-phenyl]-benzamide]",180 nM,81 °C
"CC(C)(C)NC(=O)c1cc(-c2ccc(Cl)cc2)cc(-c2ccnn2C(C)(C)C)c1 [Example 4, N-tert-Butyl-3-(2-tert-butyl-pyrazol-3-yl)-5-(4-chlorophenyl)-benzamide]",320 nM,209 °C
